Test results published in patent US6066628A, “Non-iron metalloporphyrins and methods of use” (Emory University, priority 1998, dated 2000).
Several values for one entry are separate records, joined by “and”; a condition that tells them apart may be missing. Identical values can stand only once. Like-named read-outs stand apart in the source and are kept apart here.

Columns and labels:
[1] = system: M. smegmatis; format: cell-based, Mycobacterium smegmatis; details: for antibacterial activity: M. smegmatis
[2] = system: S. aureus; format: cell-based, Staphylococcus aureus
[3] = system: mammalian cells in culture; assay: Cytotoxicity in eukaryotic cell cultures; format: cell-based; details: human cells in culture
[4] = system: Y. enterocolitica; assay: microbe, parasite or virus in culture; format: cell-based
[5] = system: N. meningitidis; assay: Disc diffusion sensitivity test; format: cell-based; details: disc ~50 μg MP
[6] = system: Ps. aeruginosa; assay: Disc diffusion sensitivity test; format: cell-based, Pseudomonas aeruginosa; details: disc ~50 μg MP; also: key: -: resistant; N: not determined
[7] = system: M tuber. H37Rv; assay: Disc diffusion sensitivity test; format: cell-based, Mycobacterium tuberculosis; details: disc ~50 μg MP
[8] = system: K. oxytoca; assay: Disc diffusion sensitivity test; format: cell-based, Klebsiella oxytoca
[9] = system: S. pyogenes A; assay: Disc diffusion sensitivity test; format: cell-based, Streptococcus pyogenes; details: disc ~50 μg MP
[10] = system: E. coli; assay: Disc diffusion sensitivity test; format: cell-based, Escherichia coli
[11] = system: Neisseria meningitidis; assay: Minimal inhibitory concentration; format: cell-based
[12] = system: P. mirabills; assay: Disc diffusion sensitivity test; format: cell-based, Proteus mirabilis
[13] = system: Y. enterocolitica; assay: Disc diffusion sensitivity test; format: cell-based; details: disc ~50 μg MP
[14] = system: E. faecalis; assay: Disc diffusion sensitivity test; format: cell-based, Enterococcus faecalis; details: disc ~50 μg MP; also: key: -: resistant; N: not determined
[15] = system: Mycobacterium bovis (BCG); format: cell-based
[16] = system: B. subtilis; assay: Disc diffusion sensitivity test; format: cell-based, Bacillus subtilis; details: B. subtilis; disc ~50 μg MP
[17] = system: Staphylococcus xylolus; assay: Disc diffusion sensitivity test; format: cell-based; details: 50 μg disc
[18] = system: C. freundii; assay: Disc diffusion sensitivity test; format: cell-based, Citrobacter freundii
[19] = system: K. pneumoniae; assay: Disc diffusion sensitivity test; format: cell-based, Klebsiella pneumoniae
[20] = system: M. smegmatis; assay: Disc diffusion sensitivity test; format: cell-based, Mycobacterium smegmatis; details: disc ~50 μg MP
[21] = system: M. bovis; format: cell-based, Mycobacterium bovis; details: disc ~50 μg MP
[22] = system: E. aerogenes; assay: Disc diffusion sensitivity test; format: cell-based, Enterobacter aerogenes
[23] = system: S. crevisieae; assay: Disc diffusion sensitivity test; format: cell-based, Saccharomyces cerevisiae; details: S. cerevisiae; disc ~50 μg MP
[24] = system: Streptococcus pyogenes JRS4; format: cell-based
[25] = system: Y. pseudotuberculosis; format: cell-based
[26] = system: M tuber. H37Pa; assay: Disc diffusion sensitivity test; format: cell-based, Mycobacterium tuberculosis; details: disc ~50 μg MP
[27] = system: S. marcescens; assay: Disc diffusion sensitivity test; format: cell-based, Serratia marcescens
[28] = system: S. aureus; assay: Disc diffusion sensitivity test; format: cell-based, Staphylococcus aureus
[29] = system: Staphylococcus carnosus; assay: Disc diffusion sensitivity test; format: cell-based; details: 50 μg disc
[30] = system: E. coli; format: cell-based, Escherichia coli; details: E. coli DH-5 alpha hemA (Table 6)
[31] = system: E. coli EB53 (hemPR^+); assay: Growth inhibition on Nutrient Broth Dipyridyl plates; details: NBD 0.1 mM plates
[32] = system: F. menigosepticum; assay: Disc diffusion sensitivity test; format: cell-based, Flavobacterium meningosepticum
[33] = system: Bacillus subtilis; assay: Minimal inhibitory concentration; format: cell-based
[34] = system: patients; details: patients with compromised kidney function, high dosages; cited from earlier work

C=Cc1c(C)c2[n]3c1C=C1N=C(C=c4c(C)c(C(=O)O)c([n]4[Ga]3[Cl])=C(CC(=O)O)C3=NC(=C2)C(C)C3CCC(=O)O)C(CC)=C1C (centres unmarked) [GA-Ce6, Ga-chlorin e6]
antibacterial activity [1]: active
MIC ([1]; M. smegmatis LR222, dark (Table 10)): 0.4 µg/mL
antibacterial activity ([2]; S. aureus): active
MIC ([2]; S. aureus IR2419, dark (Table 10)): 3.2 µg/mL
cytotoxicity [3]: cytotoxic to human cells in culture
antibacterial activity [4]: significantly less active
MIC ([4]; in µg/mL): 5 and 10

C=CC1=C(C)c2cc3[n-]c(cc4[n-]c(cc5nc(cc1n2)C(C)=C5C=C)c(C)c4CCC(=O)[O-])c(CCC(=O)[O-])c3C.[H+].[H+].[Mn+2] [Mn-PPIX, Manganese protoporphyrin IX]
diameter (mm) of the inhibition zone [5]: 18 mm
diameter (mm) of the inhibition zone [6]: -
diameter (mm) of the inhibition zone [7]: -
diameter (mm) of the inhibition zone ([8]; K. oxytoca, disc ~50 μg MP): -
sensitive strains / strains tested (inhibition zones larger or equal 20 mm) ([8]; Klebsiella oxytoca, 50 μg disc): 1/1
diameter (mm) of the inhibition zone [9]: -
diameter (mm) of the inhibition zone ([10]; E. coli, disc ~50 μg MP): -
sensitive strains / strains tested (inhibition zones larger or equal 20 mm) ([10]; Escherichia coli, 50 μg disc): 16/18
MIC ([11]; N. meningitidis IR1072, 20 to 24 hours (Table 5)): 2 µg/mL
MIC ([11]; Neisseria meningitidis (Table 4)): 2 µg/mL
diameter (mm) of the inhibition zone ([12]; P. mirabilis, disc ~50 μg MP): 22 mm
sensitive strains / strains tested (inhibition zones larger or equal 20 mm) ([12]; Proteus mirabilis, 50 μg disc): 2/2
diameter (mm) of the inhibition zone [13]: 30 mm
diameter (mm) of the inhibition zone [14]: -
MIC ([15]; M. bovis (BCG) (Table 4)): 0.8 µg/mL
MIC ([15]; M. bovis (BCG), two weeks (Table 5)): 0.8 µg/mL
diameter (mm) of the inhibition zone [16]: 25 mm
sensitive strains / strains tested (inhibition zones larger or equal 20 mm) [17]: 1/1
diameter (mm) of the inhibition zone ([18]; C. freundii, disc ~50 μg MP): 22 mm
sensitive strains / strains tested (inhibition zones larger or equal 20 mm) ([18]; Citrobacter freundii, 50 μg disc): 4/4
diameter (mm) of the inhibition zone ([19]; K. pneumoniae, disc ~50 μg MP): -
sensitive strains / strains tested (inhibition zones larger or equal 20 mm) ([19]; Klebsiella pneumoniae, 50 μg disc): 9/13
diameter (mm) of the inhibition zone [20]: 25 mm
diameter (mm) of the inhibition zone [21]: 35 mm
diameter (mm) of the inhibition zone ([22]; E. aerogenes, disc ~50 μg MP): -
sensitive strains / strains tested (inhibition zones larger or equal 20 mm) ([22]; Enterobacter aerogenes, 50 μg disc): 1/1
diameter (mm) of the inhibition zone [23]: -
sensitivity ([24]; S. pyogenes): resistant
MIC ([24]; S. pyogenes JRS4 (Table 4)): > 4 µg/mL
MIC ([24]; S. pyogenes JRS4, 20 to 24 hours (Table 5)): > 4 µg/mL
antibacterial activity [1]: inhibitory
MIC ([1]; M. smegmatis LR222 (Table 4)): 0.5 µg/mL
Minimal inhibitory concentration (MIC) ([1]; M. smegmatis LR222, LB + Tween 80 (Table 2)): 0.8 µg/mL
MIC ([25]; Y. pseudotuberculosis YP66 (Table 4)): < 0.1 µg/mL
MIC ([25]; Y. pseudotuberculosis YP66 (Table 6), in µg/mL): 1-2
MIC ([25]; Y. pseudotuberculosis, iron restricted NBD 0.1 mM, 20 to 24 hours (Table 5)): 1 to 2 µg/mL
MIC ([2]; S. aureus 8325-4 (Table 4)): 1 µg/mL
MIC ([2]; S. aureus 8325-4 (Table 6), in µg/mL): 3
MIC ([2]; S. aureus 8325-4, 20 to 24 hours (Table 5)): 3 µg/mL
Minimal inhibitory concentration (MIC) ([2]; methicillin-resistant S. aureus IR219, Nutrient broth (Table 2)): 3.2 µg/mL
diameter (mm) of the inhibition zone [26]: -
Minimal inhibitory concentration (MIC) [4]: 0.4
antibacterial activity [4]: inhibitory
diameter (mm) of the inhibition zone ([27]; S. marcescens, disc ~50 μg MP): -
sensitive strains / strains tested (inhibition zones larger or equal 20 mm) ([27]; Serratia marcescens, 50 μg disc): 2/3
diameter (mm) of the inhibition zone ([28]; S. aureus, disc ~50 μg MP): 23 mm
sensitive strains / strains tested (inhibition zones larger or equal 20 mm) ([28]; Staphylococcus aureus, 50 μg disc): 9/9
sensitive strains / strains tested (inhibition zones larger or equal 20 mm) [29]: 1/1
MIC [30]: > 10 µg/mL
inhibition of growth [31]: inhibited growth
diameter (mm) of the inhibition zone ([32]; F. meningosepticum, disc ~50 μg MP): 17 mm
sensitive strains / strains tested (inhibition zones larger or equal 20 mm) ([32]; Flavobacterium meningosepticum, 50 μg disc): 1/1
MIC ([33]; B. subtilis 3G18, 20 to 24 hours (Table 5)): 1 µg/mL
MIC ([33]; Bacillus subtilis (Table 4)): 1 µg/mL

O=[N+]([O-])[O-].O=[N+]([O-])[O-].O=[N+]([O-])[O-].[Ga+3] [gallium nitrate, Gallium nitrate]
major complication of treatment [34]: Reversible nephrotoxicity
